Experimental data as given in patent US20200170291A1, “PROCESSES FOR PRODUCING LACTITOL GRANULATES AND GRANULATES PRODUCED THEREBY” (PARTICLE DYNAMICS INTERNATIONAL, LLC, priority 2017, published 2020).
Like-named read-outs stand apart in the source and are kept apart here.

Columns and labels:
Type in all cases: physicochemical
Tapped density = assay: Tapped density
Procedure: (§1) Tapped density of the granulates of the present invention is typically at least about 0.6 g/mL, at least about 0.75 g/mL, at least about 0.80 g/mL, at least about 0.85 g/mL, or at least about 0.90 g/mL. Overall, the tapped density of the granulates of the present invention generally ranges from about 0.6 g/mL to about 1.0 g/mL, from about 0.7 g/mL to about 0.95 g/mL, or from about 0.8 g/mL to about 0.9 g/mL (e.g., about 0.85 g/mL). Bulk and tapped density as reported herein are determined by USP <616>, but it should be understood that other methods known in the art may be also be utilized to determine the tapped densities of compositions of the present invention.
(§2) Tare a 250 mL graduated glass cylinder. Fill with 100 grams of sample. Reweigh to determine weight. Record Initial Volume. The bulk density is the weight in grams divided by the volume (mL). Tap 1000 times by the automated tapping device. Read final volume. The tapped density is the weight in grams divided by the tapped volume (mL).

[1] = MALVERN MASTERSIZER 2000 particle size (d10, d50, d90); conditions: for d50: after U5 COMIL, 0.032″ round hole screen
Procedure: (§3) All particle size (PS) analyses were conducted using a ROTAP Particle Size Analyzer and a MALVERN MASTERSIZER 2000, except as otherwise indicated. All particle size data were measured in microns and analyzed via the MALVERN MASTERSIZER 2000.

Bulk density = assay: Bulk density
Procedure: as §1, §2

[2] = Moisture, loss on drying (LOD), halogen moisture balance; conditions: final / as dried material
Text: Unless otherwise indicated, the following equipment was used in Examples 1a and 1b: R&D TURBULIZER High Shear Granulator, Model TCB; Large ACCURATE Powder Feeder; AEROMATIC Fluid Bed Dryer, Model S-2; ADMIX High Shear Mixer; SWECO Vibratory Sieve, 18″; STURTEVANT MICRONIZER Jet Mill, Model 45DM; Halogen Moisture Balance (to determine moisture levels); MALVERN MASTERSIZER 2000 (particle size analyzer); ROTAP particle size analyzer; and a Tapped Density Tester.
A sample of lactitol monohydrate (DANISCO) was evaluated for particle size moisture (loss on drying (LOD)), bulk density, and tapped density. […] A photo micrograph of the material was also generated (FIG. 2).
At approximately 125 g/min, the expected moisture level would be approximately 3.4%. However, at this initial binder flow rate, the granulation exiting the mixer felt too dry and was not as granular as desired. […] The final setting was 37 Hz or approximately 140 g/min. At this binder flow rate the expected granulation moisture level would be approximately 3.8%. No additional adjustments were made to the operating conditions over the remainder of the run. The final wet granulation moisture was approximately 2%. In order to improve the accuracy of the LOD moisture results the moisture balance test conditions were altered.
The expected moisture level at this setting would be approximately 4%. […]

[3] = ROTAP sieve particle size distribution (% retained); conditions: for Particle Size Distribution (% Retained) 12: 12 mesh screen; for Particle Size Distribution (% Retained) 20: 20 mesh screen; for Particle Size Distribution (% Retained) 40: 40 mesh screen; for Particle Size Distribution (% Retained) 60: 60 mesh screen; for Particle Size Distribution (% Retained) 80: 80 mesh screen; for Particle Size Distribution (% Retained) 100: 100 mesh screen; for Particle Size Distribution (% Retained) 200: 200 mesh screen; for Particle Size Distribution (% Retained) Pan: receiving pan
Procedure: as §3
Particle Size: During the granulation process, an approximately 300 g sample is taken from material of the finished product drum starting with the first drum and every sixth drum thereafter, including the last drum (i.e. drum #1, 7, 13, 19 etc.). […] Each fraction was weighed and percent retained was calculated.

[4] = HANSON FLODEX powder flowability (viscosity)
Text: Samples were also subjected to flowability testing using a HANSON FLODEX Powder Flowability tester. The basis for the method is the powders ability to fall freely through a hole in a plate. The diameter of the smallest hole through which the powder passes is considered the flowability index. The flowability index (radius of hole size in cm) along with the bulk density of the material tested are then used to determine the viscosity (internal friction coefficient) of the powder. Lower powder viscosity indicates better flowability.
Samples of the finished lactitol granulations produced during execution of the commercial optimization protocol were also evaluated for flow using the HANSON Intrinsic Flowability Test. During the test, the smallest hole (in millimeters) that the product will flow through is determined in the FLODEX apparatus. Using this information and the bulk density of each powder (as determined in a 250 mL graduated cylinder) the coefficient of friction or viscosity (K) was calculated. The viscosity K (in poises) is equal to 490 (½ the acceleration of gravity) times the radius of the hole in centimeters times the bulk density of the sample. The result K is then multiplied by 100 to express the viscosity in centipoises.

[5] = Moisture content by Karl Fischer (KF)
Procedure: As noted, lactitol exists in the monohydrate, dihydrate, trihydrate, and hexahydrate forms. Lactitol monohydrate is the preferred form of lactitol for use. Lactitol monohydrate is defined by the EU-NP and USP-NF as having moisture content of between 4.5 wt % and 5.5 wt %. As used herein, the term “moisture content” refers to the total moisture content of a composition, including both free and bound water. Moisture contents reported here are determined by the Karl-Fischer (KF) method, but may also be determined by other suitable methods known in the art.
During the weighing of the ingredients for the binder solution and during the set up for granulation, an approximately 100 g sample representing each raw material is taken and placed into an appropriately labeled container. An approximately 0.3 gram sample is dispersed in methanol and test using a Karl Fischer moisture analyzer with HYDRANAL Composite 5 titrant using a 60 sec extraction time. Percent moisture was reported.
For each Qualification lot, at the beginning and middle of each shift samples were pulled using a sample thief from three locations within the tub after granulation but before drying. These samples were tested for moisture as described above.
Moisture content was also tested using the same procedure after the second drying step.

Row | SMILES | Tapped Density (Tapped density) | PS d10 [1] | PS d50 [1] | PS d90 [1] | Bulk Density (Bulk density) | Moisture NMT 3.0% [2] | Particle Size Distribution (% Retained) 12 [3] | Particle Size Distribution (% Retained) 20 [3] | Particle Size Distribution (% Retained) 40 [3] | Particle Size Distribution (% Retained) 60 [3] | Particle Size Distribution (% Retained) 80 [3] | Particle Size Distribution (% Retained) 100 [3] | Particle Size Distribution (% Retained) 200 [3] | Particle Size Distribution (% Retained) Pan [3] | other results
1 | O.OC[C@@H](O)[C@@H](O[C@@H]1O[C@H](CO)[C@H](O)[C@H](O)[C@H]1O)[C@H](O)[C@@H](O)CO [Raw Lactitol B] | 0.754 g/mL | 94.2 μ | 365.3 μ | 720.3 μ | 0.677 g/mL | 1.28% | 0.0% | 0.3% | 64.4% | 29.9% | 3.6% | 0.7% | 0.8% | 0.3% | –
2 | OC[C@@H](O)[C@@H](O[C@H]1O[C@H](CO)[C@H](O)[C@H](O)[C@H]1O)[C@H](O)[C@@H](O)CO [Raw Lactitol, 4-O-α-D-Galactopyranosyl-D-glucitol] | 0.925 g/mL | 112.4 μ | 426.1 μ | 922.8 μ | 0.798 g/mL | 0.61% | 0.0% | 10.0% | 57.0% | 26.3% | 4.0% | 0.9% | 1.3% | 0.5% | Tapped Density (Tapped density; listed as Raw Lactitol A): 0.925 g/mL; Tapped Density (Tapped density; listed as lactitol monohydrate): 0.93 g/mL; Flow Viscosity [4]: ~10 CPS (×1000); viscosity (flowability) [4]: approximately 9,776 cps; Particle Size Span [1]: 1.9; d50 (mean particle size by volume distribution) [1]: 426 microns; d50 ([1]; round bar impeller, 1500 rpm): 235 microns; d50 ([1]; round bar impeller, 1800 rpm): 196 microns; d50 ([1]; square bar impeller, 4200 rpm): approximately 115 microns; KF moisture [5]: 4.93%
